Consider 10 compounds from patent publication US5486516A, “Furopyrimidine derivatives” (DowElanco, priority 1993, dated 1996).

The subject of assay [1] is Southern corn rootworm (Diabrotica undecimpuctata howardi Barber). The assay is described as follows: Mite/insect screen, corn rootworm. It counts as in vivo. Particulars: Diabrotica, soil, read-out: CRW results (percent mortality); for mortality at 24 ppm: CRW rate 24.00 ppm; for mortality at 12 ppm: CRW rate 12.00 ppm. The procedure: (§1) The compounds of Examples were tested for miticidal and insecticidal activity in the following mite/insect screen.
(§2) Each test compound was formulated by dissolving the compound in acetone/alcohol (50:50) mixture containing 23 g of "TOXIMUL R" (sulfonate/nonionic emulsifier blend) and 13 g of "TOXIMUL S" (sulfonate/nonionic emulsifier blend) per liter. These mixtures were then diluted with water to give the indicated concentrations.
Activity on Southern corn rootworm (Diabrotica undecimpuctata howardi Barber) was evaluated by adding two ml of tap water, a presoaked corn seed, and 15 g of dry sandy soil to a one ounce plastic container. The soil was treated with 1 mL of test solution containing a predetermined concentration of test compound. After six to 12 hours of drying, five 2-3 instar corn rootworm larvae were added to the individual cups, which were then capped and held at 23° C.
(§3) After standard exposure periods, percent mortality and phytotoxicity were evaluated. […] The following abbreviations are used in Table 3:
CRW refers to corn rootworm

For assay [2], the system named is Twospotted spider mites (Tetranychus urticae Koch). In words: Mite/insect screen, twospotted spider mites. The assay is classed as in vivo. Conditions: Tetranychus urticae, sprayed leaves, read-out: SM results (percent mortality); for mortality at 400 ppm: rate 400 ppm; for mortality at 200 ppm: rate 200 ppm. As for the experimental part: as §1, §2
(§4) Twospotted spider mites (Tetranychus urticae Koch) and melon aphids (Aphis gossvpii Glover) were introduced on squash cotyledons and allowed to establish on both leaf surfaces. Other plants in the same treatment pot were left uninfested. The leaves were then sprayed with 5 ml of test solution using a DeVilbiss atomizing sprayer at 10 psi. Both surfaces of the leaves were covered until runoff, and then allowed to dry for one hour. Two uninfested leaves were then excised and placed into a Petri dish containing larval southern armyworm (Spodopetra eridania Cramer).
as §3
SM refers to twospotted spider mites

Assay [3] concerns melon aphids (Aphis gossvpii Glover). In words: Mite/insect screen, melon aphids. It counts as in vivo. Conditions: Aphis, sprayed leaves, read-out: MA results (percent mortality); for mortality at 400 ppm: rate 400 ppm; for mortality at 200 ppm: rate 200 ppm. As for the experimental part: as §1, §2, §4, §3
MA refers to melon aphids.

Assay [4] concerns Erysiphe graminis tritici (powdery mildew). The assay is described as follows: Plant pathology screen (Test 1), powdery mildew on wheat. Particulars: Blumeria graminis, in Triticum aestivum, foliar, read-out: POWD MDEW control rating.
Assay [5] concerns Pyricularia oryzae (rice blast). The assay is described as follows: whole plant or invertebrate. The assay is classed as in vivo. Conditions: foliar, read-out: RICE BLAST control rating.
The test system of assay [6] is Botrytis cinerea (gray mold). In words: Plant pathology screen (Test 1), gray mold on grape berries. Conditions: read-out: GRAY MOLD control rating.
In assay [7] the test system is Puccinia recondita tritici (leaf rust). In words: Plant pathology screen (Test 1), leaf rust on wheat. Conditions: in Triticum aestivum, foliar, read-out: LEAF RUST control rating.
In assay [8] the test system is Pseudoperonospora cubensis (downy mildew). The assay is described as follows: Plant pathology screen (Test 1), downy mildew on squash. Particulars: foliar, read-out: DOWN MDEW control rating.
For assay [9], the system named is southern armyworm (Spodopetra eridania Cramer). The assay is described as follows: Mite/insect screen, Southern armyworm. The assay is classed as in vivo. Conditions: Spodoptera eridania, sprayed leaves, read-out: SAW results (percent mortality); for mortality at 400 ppm: rate 400 ppm; for mortality at 200 ppm: rate 200 ppm. As for the experimental part:
as §1, §2, §4, §3
SAW refers to Southern armyworm

Structures are written as SMILES.

In general, mortality refers to the percentage killed.

Consider `Cc1oc2ncnc(NCCC3=CCCCC3)c2c1C` [Example 72, 5,6-dimethyl-N-[2-(1-cyclohexenyl)ethyl]furo[2,3-d]pyrimidin-4-amine], for which the mortality at 24 ppm in assay [1] was determined as 0%. Further, the mortality at 400 ppm in assay [2] is 0%; in assay [3], 100%; in assay [9], 60%. The pest or weed control at 400 µg/mL in assay [4] was in the range of 20 to 89%; in [5], 0 to 19%; in [6], 0 to 19%; in assay [7], 90 to 100%; in assay [8] it was 90 to 100%.

`COc1ccc(CCNc2ncnc3occc23)cc1` [Example 15, N-[2-(4-methyloxyphenyl)ethyl]furo[2,3-d]pyrimidin-4-amine]: the mortality at 12 ppm in assay [1] was determined as 0%. Also, the mortality at 24 ppm in assay [1] was determined as 0%. Further, the mortality at 200 ppm in assay [2], in assay [3] and in assay [9] was 0% each time. Further, the mortality at 400 ppm in assay [2], in assay [3] and in [9] was 0% throughout. Besides, the pest or weed control at 400 µg/mL fell in the range of 20 to 89% in assay [4]; 20 to 89% in assay [5]; 0 to 19% in assay [6]; 90 to 100% in assay [7]; 90 to 100% in assay [8].

As for `COc1ccc(CCNc2ncnc3oc4c(c23)CCCC4)cc1` [Example 30, N-[2-(4-methoxyphenyl)ethyl]-5,6,7,8-tetrahydrobenzofuro[2,3-d]pyrimidin-4-amine], the mortality at 12 ppm in [1] was 0%. The mortality at 24 ppm in [1] worked out at 0%. Further, the mortality at 200 ppm in assay [2], in [3] and in assay [9] was 0% each time. In addition, the values for the mortality at 400 ppm in assay [2], in assay [3] and in assay [9] were 0%, 0% and 90%, respectively. Besides, the pest or weed control at 400 µg/mL in assay [4] fell in the range of 0 to 19%; in assay [5], 0 to 19%; in assay [6], 0 to 19%; in assay [7] it was 20 to 89%; in [8] it was 20 to 89%.

Regarding `Cc1oc2ncnc(OCCc3cccs3)c2c1C` [Example 61, 5,6-dimethyl-4-[2-(2-thienyl)ethoxy]furo[2,3-d]pyrimidine], the mortality at 12 ppm in assay [1] stood at 0%. In addition, in assay [1], the mortality at 24 ppm came out at 0%. Besides, the mortality at 200 ppm was found to be 90% in assay [2], 90% in [3] and 0% in assay [9]. Besides, the mortality at 400 ppm in assay [2], in assay [3] and in [9] was 0% in each case. The pest or weed control at 400 µg/mL lay within 90 to 100% in assay [4]; 20 to 89% in [5]; 0 to 19% in [6]; 20 to 89% in assay [7]; 90 to 100% in assay [8].

As to `Cc1oc2ncnc(NCCc3cccc(C(F)(F)F)c3)c2c1C` [Example 23, 5,6-dimethyl-N-[2-[3-(trifluoromethyl)phenyl]ethyl]furo[2,3-d]pyrimidin-4-amine], in assay [1], the mortality at 12 ppm was found to be 100%. In assay [1], the mortality at 24 ppm is 0%. For the same compound, the mortality at 200 ppm in [2], in assay [3] and in assay [9] was 0% in each case. The mortality at 400 ppm in assay [2], in assay [3] and in assay [9] was 0% each time. Besides, the pest or weed control at 400 µg/mL in assay [4] lay in the range of 0 to 19%; in assay [5], 0 to 19%; in assay [6], 0 to 19%; in assay [7], 20 to 89%; in assay [8], 0 to 19%.

As to `Cc1oc2ncnc(OCCN3C[C@@H](C)O[C@H](C)C3)c2c1C` (relative stereo) [Example 58, Trans-5,6-dimethyl-4-[2-(2,6-dimethyl-4-morpholinyl)ethoxy]furo[2,3-d]pyrimidine], the mortality at 12 ppm in assay [1] came out at 0%. For the same compound, the mortality at 24 ppm in assay [1] amounted to 0%. In addition, the mortality at 200 ppm in assay [2], in [3] and in assay [9] was 0% each time. The mortality at 400 ppm in assay [2], in [3] and in assay [9] was 0% throughout. Also, the pest or weed control at 400 µg/mL lay within 0 to 19% in assay [4]; 0 to 19% in assay [5]; 0 to 19% in [6]; 20 to 89% in [7]; 20 to 89% in assay [8].

On to `Cc1cc2c(Oc3ccc(F)cc3)ncnc2o1` [Example 5, 6-methyl-4-(4-fluorophenoxy)furo[2,3-d]pyrimidine], for which the mortality at 12 ppm in assay [1] was 0%. Also, the mortality at 24 ppm in assay [1] worked out at 0%. The mortality at 200 ppm in assay [2], in assay [3] and in [9] was 0% in each case. Further, the mortality at 400 ppm in [2], in assay [3] and in assay [9] was 0% in each case. For the same compound, the pest or weed control at 400 µg/mL in assay [4] lay in the range of 20 to 89%; in [5] it was 0 to 19%; in assay [6], 0 to 19%; in assay [7] it was 90 to 100%; in assay [8], 0 to 19%.

As to `COc1ccccc1Oc1ncnc2oc(C)c(C)c12` [Example 28, 5,6-dimethyl-4-(2-methoxyphenoxy)furo[2,3-d]pyrimidine], the mortality at 12 ppm in [1] stood at 0%. Moreover, the mortality at 24 ppm in assay [1] was determined as 0%. For the same compound, the mortality at 200 ppm in assay [2] came out at 90%; in [3], 30%; in assay [9], 0%. For the same compound, the mortality at 400 ppm in assay [2], in assay [3] and in [9] was 0% throughout. Moreover, the pest or weed control at 400 µg/mL in assay [4], in assay [5], in [6], in assay [7] and in assay [8] was 0 to 19% each time.

As for `Cc1oc2ncnc(OCC(C)c3ccc(CC(C)C)cc3)c2c1C` (stereo not drawn) [Example 67, 4-[2-[4-(2,2-dimethylethyl)phenyl]-2-methylethoxy]5,6-dimethylfuro[2,3-d]pyrimidine], the mortality at 12 ppm in assay [1] stood at 0%. For the same compound, the mortality at 24 ppm in [1] is 0%. Besides, the results for the mortality at 200 ppm in assay [2], in assay [3] and in assay [9] were 100%, 100% and 0%, respectively. The mortality at 400 ppm in assay [2] was found to be 100%; in assay [3], 100%; in [9], 0%. The pest or weed control at 400 µg/mL in [4] lay in the range of 20 to 89%; in assay [5], 90 to 100%; in assay [6], 20 to 89%; in assay [7], 20 to 89%; in assay [8] it was 20 to 89%.

For the compound `Cc1coc2ncnc(NCCSCc3c(F)cccc3Cl)c12` [Example 16, 5-methyl-N-[2-[[ (2-chloro-6-fluorophenyl)methyl]thio]ethyl]furo[2,3-d]pyrimidin-4-amine], the mortality at 12 ppm in [1] was determined as 0%. Besides, the mortality at 24 ppm in assay [1] came to 0%. Also, the mortality at 200 ppm in [2], in [3] and in assay [9] was 0% throughout. Also, the mortality at 400 ppm in assay [2], in [3] and in [9] was 0% throughout. For the same compound, the pest or weed control at 400 µg/mL in [4], in assay [5], in [6], in [7] and in assay [8] was 0 to 19% each time.
